# Data reported in US11230717B2, “Plants having increased tolerance to herbicides” (BASF SE, priority 2013, dated 2022).
# Key:
# Type in all cases: biochemical
# Kordia HPPD = assay: HPPD activity assay, in vitro characterization; details: normalized to Hordeum SEQ ID NO:2
# Protocol: (§1) HPPD produces homogentisic acid and CO2 from 4-hydroxyphenylpyruvate (4-HPP) and O2. The activity assay for HPPD is based on the analysis of homogentisic acid by reversed phase HPLC.
# (§2) The assay mixture can contain 150 mM potassium phosphate buffer pH 7.0, 50 mM L-ascorbic acid, 100 μM Catalase (Sigma-Aldrich), 1 μM FeSO4 and 0.2 units of purified HPPD enzyme in a total volume of 505 μl. 1 unit is defined as the amount of enzyme that is required to produce 1 nmol of HGA per minute at 20° C.
# (§3) After a preincubation of 30 min the reaction is started by adding 4-HPP to a final concentration of 0.05 mM. The reaction is allowed to proceed for 45 min at room temperature. The reaction is stopped by the addition of 50 μl of 4.5 M phosphoric acid. The sample is filtered using a […] pore size PVDF filtration device.
# (§4) 5 μl of the cleared sample is analyzed on an UPLC HSS T3 column (particle size 1.8 μm, dimensions 2,1×50 mm; Waters) by isocratic elution using 90% 20 mM NaH2PO4 pH 2.2, 10% methanol (v/v).
# (§5) HGA is detected electrochemically at 750 mV (mode: DC; polarity: positive) and quantified by integrating peak areas (Empower software; Waters).
# (§6) Inhibitors are dissolved in DMSO (dimethylsulfoxide) to a concentration of 0.5 mM. From this stock solution serial five-fold dilutions are prepared in DMSO, which are used in the assay. The respective inhibitor solution accounts for 1% of the assay volume. Thus, final inhibitor concentrations range from 5 μM to 320 μM, respectively. Activities are normalized by setting the uninhibited enzyme activity to 100%. IC50 values are calculated using non-linear regression.
# (§7) Using methods which are described in the above examples or well known in the art, purified, recombinant wildtype HPPD enzymes are characterized with respect to their kinetic properties and sensitivity towards HPPD inhibiting herbicides. Apparent michaelis constants (Km) and maximal reaction velocities (Vmax) are calculated by non-linear regression with the software GraphPad Prism 5 (GraphPad Software, La Jolla, USA) using a substrate inhibition model. Apparent kcat values are calculated from Vmax assuming 100% purity of the enzyme preparation. Weighted means (by standard error) of Km and IC50 values are calculated from at least three independent experiments. The Cheng-Prusoff equation for competitive inhibition (Cheng, Y. C.; Prusoff, W. H. Biochem Pharmacol 1973, 22, 3099-3108) is used to calculate dissociation constants (Ki). • Field performance of the HPPD enzyme, which is used as a herbicide tolerance trait, may depend not only on its lack of sensitivity towards HPPD inhibiting herbicides but also on its activity. To assess the potential performance of a herbicide tolerance trait a tolerance index (TI) is calculated using the following formula: […]
# (§8) The reference SEQ ID NO:2 was included as a comparative control in a representative number of experiments and the values given in Table 12 are the average values from a number of experiments. The TI values given for various HPPD enzymes from different organisms are normalized to the value of the reference SEQ ID NO:2.
# [1] = tested on: Zea mays HPPD mutant Seq ID 69; assay: HPPD activity assay, in vitro characterization; details: normalized to Hordeum SEQ ID NO:2
# Protocol: as §1, §2, §3, §4, §5, §6, §7, §8
# [2] = tested on: Zea mays HPPD mutant Seq ID 67; assay: HPPD activity assay, in vitro characterization; details: normalized to Hordeum SEQ ID NO:2
# Protocol: as §1, §2, §3, §4, §5, §6, §7, §8
# Rhodococcus HPPD1 = assay: HPPD activity assay, in vitro characterization; details: normalized to Hordeum SEQ ID NO:2
# Protocol: as §1, §2, §3, §4, §5, §6, §7, §8
# Lolium HPPD = assay: HPPD activity assay, in vitro characterization; details: normalized to Hordeum SEQ ID NO:2
# Protocol: as §1, §2, §3, §4, §5, §6, §7, §8
# Rhodococcus HPPD2 = assay: HPPD activity assay, in vitro characterization; details: normalized to Hordeum SEQ ID NO:2
# Protocol: as §1, §2, §3, §4, §5, §6, §7, §8
# [3] = target: T1, Arabidopsis HPPD variant F381L (Arabidopsis thaliana, UniProt P93836, F381L); assay: HPPD activity assay, in vitro characterization of HPPD mutants; details: normalized to wildtype
# T1 construct: His6 (N); made in house; host or cells: E. coli BL21 (DE3)
# T1 sequence (P93836 whole entry F381L): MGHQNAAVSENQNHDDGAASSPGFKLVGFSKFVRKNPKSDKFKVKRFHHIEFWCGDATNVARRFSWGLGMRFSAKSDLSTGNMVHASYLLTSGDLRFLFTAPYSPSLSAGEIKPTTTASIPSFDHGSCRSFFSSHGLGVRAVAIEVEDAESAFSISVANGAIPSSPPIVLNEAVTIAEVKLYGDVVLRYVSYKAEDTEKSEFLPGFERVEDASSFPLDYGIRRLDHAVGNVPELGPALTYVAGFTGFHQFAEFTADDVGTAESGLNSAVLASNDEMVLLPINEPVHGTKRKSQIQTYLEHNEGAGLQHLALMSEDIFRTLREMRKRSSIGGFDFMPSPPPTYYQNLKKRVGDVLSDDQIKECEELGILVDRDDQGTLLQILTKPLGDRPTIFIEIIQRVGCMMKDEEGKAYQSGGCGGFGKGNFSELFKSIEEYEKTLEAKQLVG
# Protocol: as §1, §2, §3, §4, §5
# as §6, with “Thus, final inhibitor concentrations range from 5 μM to 320 μM, respectively.” left out
# (§9) Purified, mutant HPPD enzymes are obtained by the methods described above. Dose response and kinetic measurements are carried out using the described HPPD activity assay. Apparent michaelis constants (Km) and maximal reaction velocities (Vmax) are calculated by non-linear regression with the software GraphPad Prism 5 (GraphPad Software, La Jolla, USA) using a substrate inhibition model. […] Weighted means (by standard error) of Km and IC50 values are calculated from at least three independent experiments.
# (§10) Field performance of the optimized HPPD enzyme, which is used as a herbicide tolerance trait may depend not only on its lack of sensitivity towards HPPD inhibiting herbicides but also on its activity. To assess the potential performance of a herbicide tolerance trait a tolerance index (TI) is calculated using the following formula: […]
# [4] = target: T2, Arabidopsis HPPD variant M335H, P336A (Arabidopsis thaliana, UniProt P93836, M335H/P336A); assay: as above; details: normalized to wildtype
# T2 construct: His6 (N); made in house; host or cells: E. coli BL21 (DE3)
# T2 sequence (P93836 whole entry M335H/P336A): as the sequence (P93836 whole entry F381L) above, with M335H, P336A, L381F counted along it
# Protocol: as §1, §2, §3, §4, §5
# as §6, with “Thus, final inhibitor concentrations range from 5 μM to 320 μM, respectively.” left out
# as §9, §10
# Arabidopsis HPPD = target: T3, Arabidopsis HPPD (Arabidopsis thaliana, UniProt P93836); assay: HPPD activity assay (homogentisic acid by HPLC), in vitro characterization; details: for Normalized tolerance index (TI): Arabidopsis HPPD Wildtype (SEQ ID: 53), reference
# T3 construct: His6 (N); made in house; host or cells: E. coli BL21 (DE3)
# T3 sequence (P93836 1-445): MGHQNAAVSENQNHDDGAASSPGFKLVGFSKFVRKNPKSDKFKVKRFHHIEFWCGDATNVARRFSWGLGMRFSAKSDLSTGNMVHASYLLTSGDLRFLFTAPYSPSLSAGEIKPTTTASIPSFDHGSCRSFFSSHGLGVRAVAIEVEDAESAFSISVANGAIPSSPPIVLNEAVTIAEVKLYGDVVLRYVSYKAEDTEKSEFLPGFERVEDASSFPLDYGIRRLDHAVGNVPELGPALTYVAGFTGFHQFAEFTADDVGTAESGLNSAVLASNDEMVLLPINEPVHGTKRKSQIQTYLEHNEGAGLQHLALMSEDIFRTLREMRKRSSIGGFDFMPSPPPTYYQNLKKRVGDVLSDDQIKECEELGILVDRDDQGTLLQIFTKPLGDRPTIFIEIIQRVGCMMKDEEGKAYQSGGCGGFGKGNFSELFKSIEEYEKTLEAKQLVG
# Protocol: as §1, §2, §3, §4, §5
# as §6, with “Thus, final inhibitor concentrations range from 5 μM to 320 μM, respectively.” left out
# Using methods which are described in the above examples or well known in the art, purified, recombinant wildtype HPPD enzymes are characterized with respect to their kinetic properties and sensitivity towards HPPD inhibiting herbicides. Apparent michaelis constants (Km) and maximal reaction velocities (Vmax) are calculated by non-linear regression with the software GraphPad Prism 5 (GraphPad Software, La Jolla, USA) using a substrate inhibition model. […] Weighted means (by standard error) of Km and IC50 values are calculated from at least three independent experiments. […] To assess the potential performance of a herbicide tolerance trait a tolerance index (TI) is calculated using the following formula: […]
SMILES,Normalized tolerance index (TI) (Kordia HPPD),Normalized tolerance index (TI) [1],Normalized tolerance index (TI) [2],Normalized tolerance index (TI) (Rhodococcus HPPD1),Normalized tolerance index (TI) (Lolium HPPD),Normalized tolerance index (TI) (Rhodococcus HPPD2),Normalized tolerance index (TI) [3],Normalized tolerance index (TI) [4],Ki (Arabidopsis HPPD),Normalized tolerance index (TI) (Arabidopsis HPPD),"TI (tolerance index) (Arabidopsis HPPD; Arabidopsis HPPD, not normalized)"
"Cn1nnnc1NC(=O)c1c(F)cc(Cl)c(S(C)(=O)=O)c1Cl [Inhibitor 1, 2,4-dichloro-6-fluoro-3-methylsulfonyl-N-(1-methyltetrazol-5-yl)benzamide]",1.2,1.4,5,2.8,4.2,2.8,1.2,0.6,0.015 µM,1,15E−3
"CSc1c(Cl)cc(F)c(C(=O)Nc2ncnn2C)c1Cl [Inhibitor 3, 2,4-dichloro-6-fluoro-3-methylsulfanyl-N-(2-methyl-1,2,4-triazol-3-yl)benzamide]",3.1,0.7,3.8,0.4,1.7,12.5,0.2,0.2,–,1,–
